Earlier results, collected in publication PMC3462432 (FEBS letters, 2012).

| Substance | in vitro activity against mouse leukemia cells (mouse leukemia cells) | activity against B. anthracis (B. anthracis) |
| --- | --- | --- |
| cypemycin | potent in vitro activity | – |
| plantazolicin B | – | devoid of activity |
| plantazolicin A | – | potent activity |
